Reference: patent US20240166603A1, “Method of Treating Cancer With Atpenin A5 Derviatives” (Texas Tech University System, priority 2018, published 2024)
pIC50: −log10 of the molar value. Converted amounts (≈) assume the structure as drawn. Where two headings read alike, the source gives them in different places. Marks after values point to notes of the source that are not given here. Blank lines part the entries; values can stand above or below the compound they belong to.

Legend:
[1] = molecular target: T1, mitochondrial complex II (CII) (Rattus norvegicus, UniProt P21913+Q641Z9+Q6PCT8); experiment: Complex II inhibition assay, isolated rat heart mitochondria; conditions: for LLE (Ligand-Lipophilicity Efficiency): LLE = pIC50-ClogP; for CII inhibition activity: 100 nM where stated; for CII IC50 expressed: conversion of the nM value
[2] = test system: PC3 prostate cancer cells under hypoxia; experiment: Cell death under hypoxia, microfluidic chip, Annexin V and Sytox Green; conditions: for cell death: 10 μM, hypoxia
CII = conditions: cited from earlier work
[3] = Table 5, SDH1 and SDH2, percent relative to control
[4] = molecular target: Complex I (NADH ubiquinone-oxidoreductase) (Mus musculus, UniProt P03888+Q91WD5+Q9DC70); experiment: Complex I inhibition assay, mouse cardiac mitochondria; conditions: for Selectivity Ratio (CII:CI): Table 3
bovine CII = bovine CII (Bos taurus, UniProt P35720+Q3T189+Q95123); conditions: literature [27]; cited from earlier work
[5] = test system: WPMY-1 prostate stromal cells; experiment: Cytotoxicity, WPMY-1 prostate stromal cells; assay type: cell-based; conditions: Homo sapiens
[6] = test system: 22Rv1 prostate cancer cells; experiment: Cytotoxicity MTS assay, 22Rv1; conditions: for IC50: Homo sapiens, 22Rv1, 48 h, read-out: 22Rv1 IC50; for 22Rv1 IC50: MTS, 48 hours unless otherwise noted; for increase in efficacy relative to Enzalutamide, inhibition of cancer growth in vitro: cell line not given
HEK293 cells = experiment: Cytotoxicity MTS assay, HEK293; conditions: for selectivity for prostate cancer cells over HEK293: 16c: DU-145 and 22Rv1, 16k: 22Rv1; for IC50: Homo sapiens, HEK293, 48 h, read-out: HEK293 IC50
[7] = test system: DU-145 prostate cancer cells; experiment: Cytotoxicity MTS assay, DU-145; conditions: for IC50: Homo sapiens, DU-145, 48 h, read-out: DU-145 IC50
3T3 cells = experiment: Cytotoxicity, 3T3 mouse embryonic fibroblast cells; assay type: cell-based; conditions: NIH3T3
22Rv1 cells = experiment: Metabolic parameters, Seahorse XF Extracellular Flux Analyzer; assay type: cell-based, human; conditions: 48 hour incubation
Procedure: Next, the inventors determined the effect of complex II inhibition by the developed inhibitors on mitochondrial metabolic processes. The effect of 16c on electron transport parameters of 22Rv1 cells after 48 hour incubation was studied using a Seahorse XF Extracellular Flux Analyzer.
Assessment of Metabolic Parameters. Changes in oxygen consumption rate were measured using a XF24 Extracellular Flux Analyzer (Seahorse Bioscience, Billerica, MA). 22Rv1 cells were plated in XF24-well plates (40,000 cells/well) and allowed to adapt overnight. Treatments were performed with 16c at concentrations of 1, 10, 20, 30, 50 and 100 μg/mL and incubated for 48 hours. Mito Stress test was performed using oligomycin (10 μM), FCCP (5 μM) and Rotenone/Antimycin A (5 μM) based on the manufacturer's recommended protocol.

LNCaP cells = experiment: Potentiation of Enzalutamide in LNCaP cells (FIG. 9); assay type: cell-based
in vivo = conditions: 1 mg/kg
[8] = molecular target: T1, mitochondrial complex II (CII)
[9] = test system: PC3 prostate cancer cells; experiment: Cytotoxicity MTS assay, PC3; conditions: Homo sapiens, 48 h, read-out: PC3 IC50
[10] = read-out: CII IC50, rat heart mitochondria, mean value of four experiments
[11] = read-out: CII IC50, rat heart CII

T1 sequence (P21913 31-282): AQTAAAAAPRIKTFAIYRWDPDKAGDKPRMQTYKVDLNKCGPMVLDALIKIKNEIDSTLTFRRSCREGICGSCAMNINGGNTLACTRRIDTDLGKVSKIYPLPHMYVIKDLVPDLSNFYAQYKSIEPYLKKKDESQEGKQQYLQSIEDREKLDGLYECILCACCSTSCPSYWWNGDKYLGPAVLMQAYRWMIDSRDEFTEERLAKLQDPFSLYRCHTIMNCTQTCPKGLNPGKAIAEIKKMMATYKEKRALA
T1 sequence (Q641Z9 30-169 limits assumed): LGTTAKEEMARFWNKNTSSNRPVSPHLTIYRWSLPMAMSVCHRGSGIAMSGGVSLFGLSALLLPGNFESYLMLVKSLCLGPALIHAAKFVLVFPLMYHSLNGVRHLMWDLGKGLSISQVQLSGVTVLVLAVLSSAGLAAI
T1 sequence (Q6PCT8 57-159): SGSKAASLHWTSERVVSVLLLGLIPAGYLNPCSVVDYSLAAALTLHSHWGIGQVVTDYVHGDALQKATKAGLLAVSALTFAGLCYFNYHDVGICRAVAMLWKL
T1 sequence (Q920L2 35-656 partner): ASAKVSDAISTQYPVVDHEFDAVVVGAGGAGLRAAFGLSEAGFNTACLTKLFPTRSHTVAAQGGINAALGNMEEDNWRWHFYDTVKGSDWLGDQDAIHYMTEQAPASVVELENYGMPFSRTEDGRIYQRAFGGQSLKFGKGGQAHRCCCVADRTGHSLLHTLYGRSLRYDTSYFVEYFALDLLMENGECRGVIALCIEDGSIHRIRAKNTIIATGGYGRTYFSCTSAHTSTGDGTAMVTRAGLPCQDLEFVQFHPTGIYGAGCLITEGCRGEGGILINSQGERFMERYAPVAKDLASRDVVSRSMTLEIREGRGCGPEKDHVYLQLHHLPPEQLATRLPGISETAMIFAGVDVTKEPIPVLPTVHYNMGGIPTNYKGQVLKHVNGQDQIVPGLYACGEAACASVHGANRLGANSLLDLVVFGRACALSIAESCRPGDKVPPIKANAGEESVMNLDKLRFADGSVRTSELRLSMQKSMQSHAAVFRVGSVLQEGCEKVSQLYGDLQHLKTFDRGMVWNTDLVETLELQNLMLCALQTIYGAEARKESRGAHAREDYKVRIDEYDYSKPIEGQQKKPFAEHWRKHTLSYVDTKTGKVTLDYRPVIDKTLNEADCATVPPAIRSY
bovine CII, sequence (Q3T189 29-280): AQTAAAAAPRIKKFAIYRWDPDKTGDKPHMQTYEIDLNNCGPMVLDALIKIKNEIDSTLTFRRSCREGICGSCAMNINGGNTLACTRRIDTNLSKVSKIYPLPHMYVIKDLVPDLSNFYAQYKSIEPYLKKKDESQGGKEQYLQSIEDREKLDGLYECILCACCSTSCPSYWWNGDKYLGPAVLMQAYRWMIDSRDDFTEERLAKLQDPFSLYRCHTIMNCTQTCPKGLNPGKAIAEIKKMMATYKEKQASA
bovine CII, sequence (P35720 30-169): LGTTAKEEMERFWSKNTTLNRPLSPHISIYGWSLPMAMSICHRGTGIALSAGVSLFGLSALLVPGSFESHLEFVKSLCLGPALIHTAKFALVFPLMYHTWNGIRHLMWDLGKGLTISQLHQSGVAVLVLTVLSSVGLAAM
bovine CII, sequence (Q95123 56-158): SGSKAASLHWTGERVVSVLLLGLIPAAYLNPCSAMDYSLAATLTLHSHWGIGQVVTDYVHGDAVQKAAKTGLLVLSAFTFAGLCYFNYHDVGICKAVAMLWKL
bovine CII, sequence (P31039 44-665 partner): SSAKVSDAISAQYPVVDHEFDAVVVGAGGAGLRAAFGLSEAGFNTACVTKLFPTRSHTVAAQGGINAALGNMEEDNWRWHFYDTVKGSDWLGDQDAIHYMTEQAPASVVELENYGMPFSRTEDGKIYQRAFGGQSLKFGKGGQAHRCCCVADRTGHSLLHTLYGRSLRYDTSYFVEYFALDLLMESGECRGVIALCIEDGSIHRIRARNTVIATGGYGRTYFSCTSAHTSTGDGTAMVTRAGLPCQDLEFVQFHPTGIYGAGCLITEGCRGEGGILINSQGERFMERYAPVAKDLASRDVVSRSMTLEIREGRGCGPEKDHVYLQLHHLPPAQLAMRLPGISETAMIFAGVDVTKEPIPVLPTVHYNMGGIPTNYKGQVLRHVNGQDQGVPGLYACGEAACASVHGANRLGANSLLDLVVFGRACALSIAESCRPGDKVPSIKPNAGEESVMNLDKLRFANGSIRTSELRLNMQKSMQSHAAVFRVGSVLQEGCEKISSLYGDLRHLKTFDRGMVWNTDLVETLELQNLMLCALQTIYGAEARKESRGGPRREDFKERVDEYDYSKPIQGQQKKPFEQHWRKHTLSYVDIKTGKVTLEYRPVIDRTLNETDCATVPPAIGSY

Structure (SMILES): COc1nc(O)c(C(=O)CCCCOCc2ccccc2)c(O)c1OC [Compound 16d, 5-(benzyloxy)-1-(2,4-dihydroxy-5,6-dimethoxypyridin-3-yl)pentan-1-one]
LLE (Ligand-Lipophilicity Efficiency) [1]: 3.41
pIC50 [1, 10]: 6.55

Structure (SMILES): COc1cc([C@@H]2c3cc4c(cc3[C@@H](O[C@@H]3O[C@@H]5CO[C@@H](C)O[C@H]5[C@H](O)[C@H]3O)[C@H]3COC(=O)[C@H]23)OCO4)cc(OC)c1O [Etoposide, etoposide, reference compound]
cell death [2]: 7%

Structure (SMILES): CCCCCCCCC(=O)c1c(O)nc(OC)c(OC)c1O [Compound 16h, 1-(2,4-dihydroxy-5,6-dimethoxypyridin-3-yl)nonan-1-one]
LLE (Ligand-Lipophilicity Efficiency) [1]: 4.93
pIC50 [1, 10]: 7.80

inhibition of CII at 100 nM concentration [1]: 0%
Structure (SMILES): CCCCCC(O)c1c(OCOC)nc(OC)c(OC)c1OCOC (stereo not shown) [Compound 17, 1-(5,6-dimethoxy-2,4-bis(methoxymethoxy)pyridin-3-yl)hexan-1-ol]

Structure (SMILES): O=C(CC(=O)C(F)(F)F)c1cccs1 [TFFA, Thenoyltrifluoroacetone]
pIC50 (CII; literature): 4.52

inhibition of CII at 100 nM concentration [1]: 0%
CII inhibition activity [1]: no activity at 100 nM concentration
Structure (SMILES): CCCCCC(=O)c1cnc(OC)c(OC)c1O [Compound 20, 1-(4-hydroxy-5,6-dimethoxypyridin-3-yl)hexan-1-one]

Structure (SMILES): COc1nc(O)c(C(=O)CCCC[P+](c2ccccc2)(c2ccccc2)c2ccccc2)c(O)c1OC [SDH2]
value at 100 nM (Control 100%) [3]: 61.64%
value at 1 uM (Control 100%) [3]: 43.53%

Structure (SMILES): Cc1c(C)c2c(c(C)c1OC(=O)CCC(=O)O)CC[C@@](C)(CCC[C@H](C)CCC[C@H](C)CCCC(C)C)O2 [α-TOS, α-Tocopheryl succinate]
pIC50 (CII; literature): 4.38

Structure (SMILES): COc1[nH]c(=O)c(C(=O)[C@@H](C)C[C@H](C)[C@@H](Cl)CCl)c(O)c1OC [Atpenin A5, atpenin A5]
pIC50 (CII; literature [20, 23]): 8.00 to 8.44
Selectivity Ratio (CII:CI) [4]: >3030
pIC50 ([4]; read-out: Complex I IC50): < 5.00
LLE (Ligand-Lipophilicity Efficiency) [1]: 5.36
pIC50 [1, 11]: 8.48
pIC50 [1, 10]: 8.48
pIC50 ([1]; read-out: Complex II IC50, Table 3): 8.48

inhibition of CII at 100 nM concentration [1]: 0%
CII inhibition activity [1]: no CII inhibition activity
Structure (SMILES): CCCCCC(O)c1c(O)nc(OC)c(OC)c1O (racemic) [Compound 18, (rac)-3-(1-hydroxyhexyl)-5,6-dimethoxypyridine-2,4-diol]
cytotoxic effect under hypoxia ([2]; up to 10 μM): no cytotoxic effect

Structure (SMILES): CCCCC(=O)c1c(O)nc(OC)c(OC)c1O [SDH1]
value at 100 nM (Control 100%) [3]: 65.17%
value at 1 uM (Control 100%) [3]: 35.13%

Structure (SMILES): CCCCC(=O)c1c(O)nc(OC)c(OC)c1O [Compound 16b, 1-(2,4-dihydroxy-5,6-dimethoxypyridin-3-yl)pentan-1-one]
pIC50 (bovine CII): 7.02
LLE (Ligand-Lipophilicity Efficiency) [1]: 5.37
pIC50 [1, 11]: 6.46
pIC50 [1, 10]: 6.46

Structure (SMILES): O=C(O)CC(=O)O [Malonate]
pIC50 (CII; literature): 4.40

inhibition of CII at 100 nM concentration [1]: 0%^e
CII inhibition activity [1]: abrogates CII inhibition activity
Structure (SMILES): COc1nc(O)c(C(=O)c2ccco2)c(O)c1OC [Compound 16a, (2,4-dihydroxy-5,6-dimethoxypyridin-3-yl)(furan-2-yl)methanone]

Structure (SMILES): CCCCCCCCCCC(=O)c1c(O)nc(OC)c(OC)c1O [Compound 16j, 1-(2,4-dihydroxy-5,6-dimethoxypyridin-3-yl)undecan-1-one]
LLE (Ligand-Lipophilicity Efficiency) [1]: 4.32
pIC50 [1, 11]: 8.07

LLE (Ligand-Lipophilicity Efficiency) [1]: 1.85
Structure (SMILES): CC1=NS(=O)(=O)c2cc(Cl)ccc2N1 [Diazoxide, diazoxide, reference compound]
pIC50 (CII; literature): 4.49

Structure (SMILES): COc1nc(O)c(C(=O)CCCCO)c(O)c1OC [Compound 16e, 1-(2,4-dihydroxy-5,6-dimethoxypyridin-3-yl)-5-hydroxypentan-1-one]
LLE (Ligand-Lipophilicity Efficiency) [1]: 6.90
pIC50 [1, 10]: 5.43

Structure (SMILES): CCCCCCCCCCCCC(=O)c1c(O)nc(OC)c(OC)c1O [Compound 16k, 1-(2,4-dihydroxy-5,6-dimethoxypyridin-3-yl)tridecan-1-one]
IC50 [5]: 10.7 µg/mL (≈ 29.1 µM)
IC50 [6]: 2 µg/mL (≈ 5.44 µM)
22Rv1 IC50 [6]: 2 µg/mL
increase in efficacy relative to Enzalutamide, inhibition of cancer growth in vitro [6]: 10 fold
selectivity for prostate cancer cells over HEK293 (HEK293 cells): 17.5 fold
IC50 (HEK293 cells): 35 µg/mL (≈ 95.2 µM)
pIC50 [4]: < 5.00
Selectivity Ratio (CII:CI) [4]: >3030
pIC50 ([4]; read-out: Complex I IC50): < 5.00
LLE (Ligand-Lipophilicity Efficiency) [1]: 3.76
CII IC50 expressed [1]: 0.00121 µg/mL

Structure (SMILES): CCCCCCC(=O)c1c(O)nc(OC)c(OC)c1O [Compound 16f, 1-(2,4-dihydroxy-5,6-dimethoxypyridin-3-yl)heptan-1-one]
pIC50 (bovine CII): 7.70
LLE (Ligand-Lipophilicity Efficiency) [1]: 4.57
pIC50 [1, 10]: 6.55

inhibition of CII at 100 nM concentration [1]: 0%
CII inhibition activity [1]: inactive compound
Structure (SMILES): CCCCCC(O)c1cnc(OC)c(OC)c1O (racemic) [Compound 19, (rac)-5-(1-hydroxyhexyl)-2,3-dimethoxypyridin-4-ol]

Structure (SMILES): CCCCCCCC(=O)c1c(O)nc(OC)c(OC)c1O [Compound 16g, 1-(2,4-dihydroxy-5,6-dimethoxypyridin-3-yl)octan-1-one]
LLE (Ligand-Lipophilicity Efficiency) [1]: 4.89
pIC50 [1, 10]: 7.31

inhibition of CII at 100 nM concentration [1]: 0%
CII inhibition activity [1]: no activity to inhibit CII at 100 nM
Structure (SMILES): CCCCCC(OC)c1cnc(OC)c(OC)c1O (stereo not shown) [Compound 24, 2,3-dimethoxy-5-(1-methoxyhexyl)pyridin-4-ol]
IC50 [7]: > 30 µg/mL
growth inhibition of DU-145 cells ([7]; up to 30 μg/mL): no growth inhibition effect

Structure (SMILES): CCCCCC(=O)c1c(O)nc(OC)c(OC)c1O [Compound 16c, 1-(2,4-dihydroxy-5,6-dimethoxypyridin-3-yl)hexan-1-one]
IC50 [5]: 18.4 µg/mL (≈ 68.3 µM)
IC50 (3T3 cells): 31.8 µg/mL (≈ 118 µM)
ATP production (22Rv1 cells): inhibition of ATP production
basal respiration (22Rv1 cells): reducing basal respiration
maximal respiration (22Rv1 cells): reduction of maximal respiration
oxygen consumption rate (22Rv1 cells): substantially reduced in a dose-dependent manner
effect on Enzalutamide (ENZA) in LNCaP cells (LNCaP cells): potentiates Enzalutamide
AUC (in vivo): 19.6 ng·h/mL
Vd (in vivo): 89.5 L/kg
half-life (in vivo): 103 min
AUC(0-inf) (in vivo; AUCinf,obs): 8.3 ng·h/mL
AUC(0-inf) (in vivo; AUCinf,pred): 8.32 ng·h/mL
Tmax (in vivo): 22.8 min
AUCinf,obs (in vivo; female): 23.61 ng·h/mL
AUCinf,pred (in vivo; female): 23.63 ng·h/mL
t1/2λz (in vivo; female): 104 min
AUC(0-inf) (in vivo; female, AUCinf,obs): 36 ng·h/mL
AUC(0-inf) (in vivo; female, AUCinf,pred): 36 ng·h/mL
Cmax (in vivo; female): 140 ng/mL
Tmax (in vivo; female): 15 min
Vssobs (in vivo; male): 134.64772 L/kg
Vsspred (in vivo; male): 129.16994 L/kg
t1/2λz (in vivo; male): 103 min
AUC(0-inf) (in vivo; male, AUCinf,obs): 10.7 ng·h/mL
AUC(0-inf) (in vivo; male, AUCinf,pred): 10.6 ng·h/mL
Cmax (in vivo; male): 23.9 ng/mL
Tmax (in vivo; male): 30 min
LLE (Ligand-Lipophilicity Efficiency) [8]: 5.62
IC50 [9]: 38 µg/mL (≈ 141 µM)
IC50 [6]: 11 µg/mL (≈ 40.8 µM)
22Rv1 IC50 [6]: 11 µg/mL
increase in efficacy relative to Enzalutamide, inhibition of cancer growth in vitro [6]: 10 fold
IC50 [7]: 12 µg/mL (≈ 44.6 µM)
selectivity for prostate cancer cells over HEK293 (HEK293 cells): 7.4 fold
IC50 (HEK293 cells): 81 µg/mL (≈ 301 µM)
Selectivity Ratio (CII:CI) [4]: >156
CII IC50 expressed [1]: 0.01723 µg/mL
cell death [2]: 20%
